Reference: patent publication US12582640B2, “Treatment of lower respiratory tract infection with tradipitant” (Vanda Pharmaceuticals Inc., priority 2020, dated 2026)

Tested on: severe or critical COVID-19 infection
Assay: Randomized, double-blind, placebo-controlled study of tradipitant in hospitalized patients with COVID-19 pneumonia (interim analysis, ITT population)
Type: in vivo, human
Parameters: Mortality KM estimate: concentration or dose not given beside the values
Details: for Mortality hazard ratio (95% CI) / Hazard ratio (95% CI), responder as improvement of 2 or more points / Odds ratio (95% CI), ordinal score at Day 7 / Odds ratio (95% CI), ordinal score at Day 28: tradipitant vs placebo; for Mortality hazard ratio (95% CI) / Hazard ratio (95% CI), responder as improvement of 2 or more points: Cox model; for Odds ratio (95% CI), ordinal score at Day 7 / Odds ratio (95% CI), ordinal score at Day 28: proportional odds model
From the text: A randomized, double-blind, placebo-controlled study investigates the efficacy of tradipitant in the treatment of inflammatory lung injury and pneumonia associated with severe or critical COVID-19 infection, and improvement of clinical outcomes associated with severe or critical COVID-19 infection. Such improvements in clinical outcomes include reduction in long term pulmonary function deficits and pulmonary fibrosis.
Methods: Prospective participants attend a screening visit on study day −1 to 0 to assess the prospective patient's eligibility to participate. All enrolled patients are asked to undertake an initial physical examination and must satisfy inclusion and exclusion criteria before being enrolled into the study. A total sample size of 300 patients (150 per arm) provides approximately 93% power to detect a 20% difference of normalization in fever and oxygen saturation, assuming 50% and 70% normalization rates in placebo and tradipitant treatment groups respectively, based on a two-sided Fisher's Exact Test at a 5% significance level.
Inclusion criteria include: adults aged 18-90; confirmed laboratory COVID-19 infection by RT-PCR; confirmed pneumonia by chest radiograph or computed tomography; fever defined as temperature ≥36.6° C. armpit, ≥37.2° C. oral, or ≥37.8° C. rectal; and oxygen saturation of less than 92% on room air OR on mechanical ventilation OR increased work of breathing (WOB) on exam without respiratory support OR respiratory rate greater than 20 per minute. Exclusion criteria include: recent use of illicit drugs or alcohol abuse; known allergy to tradipitant or other neurokinin-1 antagonists; pregnancy; known HIV, HBV, or HCV infection; malignant tumor, other serious systemic diseases; and inability to provide informed consent or to have an authorized relative or designated person provide informed consent, or to comply with the protocol requirements.
Patients who meet the inclusion-exclusion criteria are randomized 1:1 to treatment with either 85 mg tradipitant twice daily (bid) per os (PO, i.e. orally) or matching placebo under double-blind conditions, in addition to standard of care for COVID-19 infection according to protocol at the treating hospital. In both arms, treatment with study medication continues for 14 days or until discharge from the hospital. In both tradipitant treatment and placebo study arms, patients are given one capsule of study medication to be taken orally every day in the morning prior to or at 9:00 am and one capsule of study medication to be taken orally every day in the evening approximately 12 hours later (±1 hour). Patients in the tradipitant treatment arm receive capsules containing 85 mg tradipitant, as well as spray-dried lactose monohydrate, microcrystalline cellulose (Avicel PH102 and PH200), povidone, croscarmellose sodium, sodium lauryl sulfate, and magnesium stearate as excipients. The tradipitant capsules are white opaque, hard gelatin capsules. Placebo capsules are provided in size and appearance identical to those containing tradipitant.
For patients requiring administration via nasogastric tube, the following procedure is used: 1) empty contents of one 85 mg capsule in a glass mortar and grind using a pestle until all granules are thoroughly crushed; 2) add 10 mL of water while continuing to grind to obtain a uniform dispersion; 3) draw up entire dispersion into a suitable syringe; 4) connect syringe tip to nasogastric tube and push entire syringe contents; and 5) rinse mortar and pestle with 5 mL of water and repeat steps 3) and 4). The crushing procedure results in the preparation of a uniform dispersion in water, which can then be administered through a nasogastric tube without clogging.
Patient assessments are performed in accordance with the schedule of evaluations detailed in Table 1 below.
Mortality is assessed as the proportion of participants with in-hospital mortality, and is evaluated per treatment arm. […]

[1] = Day 7, baseline ordinal score 3
[2] = Day 7, baseline ordinal score 4
[3] = Day 28, baseline ordinal score 2
[4] = Day 28, baseline ordinal score 3
[5] = Day 28, baseline ordinal score 4
[6] = ITT overall, >1 benefit for tradipitant
[7] = baseline ordinal score 2 (N = 4)
[8] = baseline ordinal score 3 (N = 13)
[9] = baseline ordinal score 4 (N = 9)
[10] = tradipitant arm, 85 mg bid PO plus standard of care, interim analysis

## O=C(c1ccccc1Cl)c1cccnc1-c1nnn(Cc2cc(C(F)(F)F)cc(C(F)(F)F)c2)c1-c1ccncc1 [Tradipitant, {2-[1-(3,5-bistrifluoromethylbenzyl)-5-pyridin-4-yl-1H-[1,2,3]triazol-4-yl]-pyridin-3-yl}-(2-chlorophenyl)-methanone]
Day 7, ITT overall
  Mortality KM estimate: 9.8%
Day 7, ITT overall (N = 28)
  No. of responders (improvement of 2 or more points): 13
Day 7, ITT overall, <1 benefit for tradipitant
  Mortality hazard ratio (95% CI): 2.65
Day 7, baseline ordinal score 2
  Mortality KM estimate: 25.0%
Day 7, baseline ordinal score 2 (N = 4)
  No. of responders (improvement of 2 or more points): 3
[1]
  Mortality KM estimate: 0.0%
  Hazard ratio (95% CI), responder as improvement of 2 or more points: 2.19
Day 7, baseline ordinal score 3 (N = 13)
  No. of responders (improvement of 2 or more points): 2
[2]
  Mortality KM estimate: 25.0%
  Hazard ratio (95% CI), responder as improvement of 2 or more points: 2.23
  Mortality hazard ratio (95% CI): 3.14
Day 7, baseline ordinal score 4 (N = 9)
  No. of responders (improvement of 2 or more points): 6
Day 28, ITT overall
  Mortality KM estimate: 20.4%
Day 28, ITT overall (N = 28)
  No. of responders (improvement of 2 or more points): 16
Day 28, ITT overall, <1 benefit for tradipitant
  Mortality hazard ratio (95% CI): 1.03
[3]
  Mortality KM estimate: 50.0%
  Mortality hazard ratio (95% CI): 1.84
Day 28, baseline ordinal score 2 (N = 4)
  No. of responders (improvement of 2 or more points): 3
[4]
  Mortality KM estimate: 9.1%
  Hazard ratio (95% CI), responder as improvement of 2 or more points: 1.08
  Mortality hazard ratio (95% CI): 0.95
Day 28, baseline ordinal score 3 (N = 13)
  No. of responders (improvement of 2 or more points): 4
[5]
  Mortality KM estimate: 25.0%
  Hazard ratio (95% CI), responder as improvement of 2 or more points: 1.59
  Mortality hazard ratio (95% CI): 1.24
Day 28, baseline ordinal score 4 (N = 9)
  No. of responders (improvement of 2 or more points): 7
Day 28 analysis, ITT overall (N = 28), listed as tradipitant
  Median time to responder (95% CI): 10 days
ITT overall (N = 28)
  No. of deaths by day 7: 2
  No. of deaths by day 28: 4
[6]
  Odds ratio (95% CI), ordinal score at Day 7: 1.05
  Odds ratio (95% CI), ordinal score at Day 28: 1.01
[7]
  No. of deaths by day 7: 1
  No. of deaths by day 28: 2
Baseline ordinal score 2
  Odds ratio (95% CI), ordinal score at Day 7: 0.43
  Odds ratio (95% CI), ordinal score at Day 28: 0.43
[8]
  No. of deaths by day 7: 0
  No. of deaths by day 28: 1
Baseline ordinal score 3
  Odds ratio (95% CI), ordinal score at Day 7: 2.69
  Odds ratio (95% CI), ordinal score at Day 28: 2.21
[9]
  No. of deaths by day 7: 1
  No. of deaths by day 28: 1
Baseline ordinal score 4
  Odds ratio (95% CI), ordinal score at Day 7: 0.40
  Odds ratio (95% CI), ordinal score at Day 28: 0.62
[10]
  mortality rate: 14.2%
  patients showing clinical improvement (at least a 2 point improvement in the 7 point ordinal scale): 57%
